For orientation: Kd means a measure of binding affinity in units of concentration.

The structures appear in SMILES notation. Read-outs that look alike come from different tables or passages of the source.

Our source for the Kd values is PMC10970593, “Jozimine A2, a Dimeric Naphthylisoquinoline (NIQ) Alkaloid, Shows In Vitro Cytotoxic Effects against Leukemia Cells through NF-κB Inhibition” (International Journal of Molecular Sciences, 2024).

The target in this assay is T1, NF-κB (human recombinant; p65 subunit used in docking) (Homo sapiens, UniProt Q04206).
T1 construct: gene RELA; human recombinant NF-κB protein, Sino Biological cat; No. 12054-H09E
Description: microscale thermophoresis with labeled recombinant protein. Format: binding.

Regarding `COc1cc(C)cc2c(-c3c(O)cc(O)c4c3C[C@@H](C)N[C@@H]4C)cc(-c3cc(-c4c(O)cc(O)c5c4C[C@@H](C)N[C@@H]5C)c4cc(C)cc(OC)c4c3O)c(O)c12` [michellamine B], the Kd was determined as 2800 ± 94 nM.
For `COc1cccc2c(-c3ccc4c(c3O)[C@@H](C)N[C@H](C)C4)c(C)c(-c3c(C)c(-c4ccc5c(c4O)[C@@H](C)N[C@H](C)C5)c4cccc(OC)c4c3O)c(O)c12` [jozimine A2], the Kd (read-out: Kd) amounted to 1660 ± 12 nM.
